For series [1], the target named is Amyloid-beta precursor protein (Homo sapiens) (UniProt P05067). The series is described as follows: Inhibition of recombinant human HFIP-pretreated amyloid beta (1 to 42) self aggregation at 10 uM after 24 hrs by ThT-based fluorometric method relative to control.
The target in series [2] is T1, Acetylcholinesterase (Electrophorus electricus, UniProt O42275). Briefly: Inhibition of electric eel AChE using acetylthiocholine iodide as substrate preincubated for 5 mins followed by substrate addition measured after 5 mins by Ellman's method.
T1 sequence (O42275 whole entry): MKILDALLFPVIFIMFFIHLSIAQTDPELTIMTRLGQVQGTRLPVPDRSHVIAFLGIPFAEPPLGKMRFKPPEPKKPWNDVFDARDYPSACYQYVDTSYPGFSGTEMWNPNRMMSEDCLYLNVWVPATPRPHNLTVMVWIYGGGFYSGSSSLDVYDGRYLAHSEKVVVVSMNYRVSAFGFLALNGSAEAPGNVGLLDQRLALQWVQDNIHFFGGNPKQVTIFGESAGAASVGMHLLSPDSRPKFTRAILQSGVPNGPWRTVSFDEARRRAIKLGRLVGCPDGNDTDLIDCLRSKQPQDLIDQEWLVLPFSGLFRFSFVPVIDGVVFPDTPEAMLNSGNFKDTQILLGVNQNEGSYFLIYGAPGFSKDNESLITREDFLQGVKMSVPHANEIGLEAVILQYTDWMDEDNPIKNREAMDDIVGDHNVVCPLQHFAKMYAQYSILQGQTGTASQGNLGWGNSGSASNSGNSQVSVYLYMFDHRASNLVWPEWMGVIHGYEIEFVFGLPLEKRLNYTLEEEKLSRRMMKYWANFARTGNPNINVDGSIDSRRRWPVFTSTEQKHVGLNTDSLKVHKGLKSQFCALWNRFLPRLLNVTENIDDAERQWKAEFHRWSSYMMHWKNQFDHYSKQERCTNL
Series [3] deals with T2, Acetylcholinesterase (Homo sapiens, UniProt P22303). The series is described as follows: Inhibition of recombinant human AChE using acetylthiocholine iodide as substrate preincubated for 5 mins followed by substrate addition measured after 5 mins by Ellman's method. (DTNB colorimetry detects thiols as they appear.)
T2 sequence (P22303 whole entry): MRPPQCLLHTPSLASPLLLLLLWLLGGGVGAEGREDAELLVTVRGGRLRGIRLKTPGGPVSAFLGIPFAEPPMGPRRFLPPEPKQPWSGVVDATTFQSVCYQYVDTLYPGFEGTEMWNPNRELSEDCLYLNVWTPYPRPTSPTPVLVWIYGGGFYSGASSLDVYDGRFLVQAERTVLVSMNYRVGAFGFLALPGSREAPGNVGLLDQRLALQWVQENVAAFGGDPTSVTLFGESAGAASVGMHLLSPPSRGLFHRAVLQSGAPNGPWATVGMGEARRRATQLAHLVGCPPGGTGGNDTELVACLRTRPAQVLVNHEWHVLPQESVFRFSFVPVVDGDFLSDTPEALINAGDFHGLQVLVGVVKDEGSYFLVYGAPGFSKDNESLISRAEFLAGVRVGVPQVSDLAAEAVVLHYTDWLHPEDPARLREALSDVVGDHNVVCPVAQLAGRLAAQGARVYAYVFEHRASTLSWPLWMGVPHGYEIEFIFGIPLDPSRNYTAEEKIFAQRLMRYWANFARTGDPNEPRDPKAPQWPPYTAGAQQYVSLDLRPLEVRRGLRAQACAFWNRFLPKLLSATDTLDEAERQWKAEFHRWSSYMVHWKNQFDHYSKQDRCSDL
For series [4], the target named is T2, Acetylcholinesterase. Briefly: Inhibition of recombinant human AChE using acetylthiocholine iodide as substrate preincubated for 20 mins followed by substrate addition measured after 5 mins by Ellman's method.
For series [5], the target named is T3, Amine oxidase [flavin-containing] B (Homo sapiens, UniProt P27338).
T3 sequence (P27338 whole entry): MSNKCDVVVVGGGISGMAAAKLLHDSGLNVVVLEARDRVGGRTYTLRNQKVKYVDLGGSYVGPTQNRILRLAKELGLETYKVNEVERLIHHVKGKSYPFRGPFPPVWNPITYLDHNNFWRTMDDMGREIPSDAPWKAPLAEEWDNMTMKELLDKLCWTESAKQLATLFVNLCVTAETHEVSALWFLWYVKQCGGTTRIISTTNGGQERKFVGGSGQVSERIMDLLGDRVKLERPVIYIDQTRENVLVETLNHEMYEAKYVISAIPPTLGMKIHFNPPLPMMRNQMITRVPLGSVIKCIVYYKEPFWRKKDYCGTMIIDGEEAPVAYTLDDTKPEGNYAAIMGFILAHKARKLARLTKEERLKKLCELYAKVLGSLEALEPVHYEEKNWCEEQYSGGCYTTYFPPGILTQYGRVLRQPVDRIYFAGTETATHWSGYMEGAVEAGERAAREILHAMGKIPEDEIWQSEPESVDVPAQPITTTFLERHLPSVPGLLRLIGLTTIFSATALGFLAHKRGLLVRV
Briefly: Inhibition of recombinant human MAOB using tyramine hydrochloride as substrate preincubated for 30 mins followed by substrate addition measured for 1 hr by fluorometric method.

Series [6] has as its target T1, Acetylcholinesterase. The series is described as follows: Inhibition of electric eel AChE using acetylthiocholine iodide as substrate preincubated for 20 mins followed by substrate addition measured after 5 mins by Ellman's method.
For series [7], the target named is T4, Cholinesterase (Equus caballus, UniProt P81908). The series is described as follows: Inhibition of equine serum BuChE using butyrylthiocholine iodide as substrate preincubated for 20 mins followed by substrate addition measured after 30 mins by Ellman's method.
T4 sequence (P81908 whole entry): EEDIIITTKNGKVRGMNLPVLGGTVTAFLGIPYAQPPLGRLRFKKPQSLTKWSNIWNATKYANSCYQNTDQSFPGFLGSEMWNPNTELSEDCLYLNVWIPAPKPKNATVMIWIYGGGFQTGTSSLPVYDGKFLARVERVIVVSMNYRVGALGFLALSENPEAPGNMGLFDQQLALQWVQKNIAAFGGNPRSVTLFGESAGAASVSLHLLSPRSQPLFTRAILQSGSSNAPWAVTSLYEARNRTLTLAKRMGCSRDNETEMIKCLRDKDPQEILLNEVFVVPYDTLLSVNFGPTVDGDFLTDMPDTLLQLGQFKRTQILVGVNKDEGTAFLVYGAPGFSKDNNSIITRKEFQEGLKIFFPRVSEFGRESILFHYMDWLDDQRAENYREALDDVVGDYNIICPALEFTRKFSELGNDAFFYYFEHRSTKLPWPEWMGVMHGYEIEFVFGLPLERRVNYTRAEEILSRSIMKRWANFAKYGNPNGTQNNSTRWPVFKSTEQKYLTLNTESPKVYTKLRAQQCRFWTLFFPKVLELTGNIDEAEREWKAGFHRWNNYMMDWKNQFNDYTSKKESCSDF
The target in another series is Beta-secretase 1 (Homo sapiens, UniProt P56817). The series is described as follows: Inhibition of BACE-1 (unknown origin).
Beta-secretase 1, sequence (P56817 whole entry): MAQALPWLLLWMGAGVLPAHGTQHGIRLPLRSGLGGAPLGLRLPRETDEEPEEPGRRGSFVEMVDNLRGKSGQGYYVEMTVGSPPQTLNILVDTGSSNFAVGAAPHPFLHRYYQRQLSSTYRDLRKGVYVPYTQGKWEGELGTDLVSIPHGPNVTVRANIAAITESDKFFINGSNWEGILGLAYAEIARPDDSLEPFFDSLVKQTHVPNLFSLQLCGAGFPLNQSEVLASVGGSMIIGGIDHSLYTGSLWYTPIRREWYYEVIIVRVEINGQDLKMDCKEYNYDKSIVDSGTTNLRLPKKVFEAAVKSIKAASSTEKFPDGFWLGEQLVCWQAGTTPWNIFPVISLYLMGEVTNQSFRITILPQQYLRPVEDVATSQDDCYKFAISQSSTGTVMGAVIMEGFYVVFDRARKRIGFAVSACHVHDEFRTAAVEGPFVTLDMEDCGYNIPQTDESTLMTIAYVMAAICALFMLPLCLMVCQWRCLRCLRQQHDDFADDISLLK
Series [8] concerns the target T4, Cholinesterase. The series is described as follows: Inhibition of equine serum BuChE.
The target of series [9] is T1, Acetylcholinesterase. Briefly: Inhibition of electric eel AChE.
Series [10] can be described thus: Antioxidant activity assessed as trolox equivalent of AAPH-induced radical scavenging activity at 70 nM preincubated for 15 mins followed by AAPH addition measured every min for 80 mins by ORAC-FL assay. Format: functional.
The nature of series [11]: Effective permeability of the compound. It counts as ADME. Conditions: not told; read-out: Peff.
The target of series [12] is T3, Amine oxidase [flavin-containing] B. The series is described as follows: Inhibition of human MAOB.
The target of series [13] is T5, Amine oxidase [flavin-containing] A (Homo sapiens, UniProt P21397).
T5 sequence (P21397 whole entry): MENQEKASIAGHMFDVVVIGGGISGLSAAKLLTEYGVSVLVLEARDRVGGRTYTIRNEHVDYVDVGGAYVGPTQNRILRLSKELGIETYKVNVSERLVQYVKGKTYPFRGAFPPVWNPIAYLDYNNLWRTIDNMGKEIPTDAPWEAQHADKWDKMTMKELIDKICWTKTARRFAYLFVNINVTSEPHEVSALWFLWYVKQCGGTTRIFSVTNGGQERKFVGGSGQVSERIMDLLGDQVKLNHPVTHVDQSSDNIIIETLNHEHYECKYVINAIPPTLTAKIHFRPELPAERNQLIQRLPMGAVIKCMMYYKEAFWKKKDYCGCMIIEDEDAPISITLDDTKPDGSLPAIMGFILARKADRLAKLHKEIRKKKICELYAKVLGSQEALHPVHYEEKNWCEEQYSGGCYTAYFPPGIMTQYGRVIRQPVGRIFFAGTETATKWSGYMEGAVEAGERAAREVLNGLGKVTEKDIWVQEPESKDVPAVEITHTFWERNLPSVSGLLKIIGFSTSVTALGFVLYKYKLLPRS
Briefly: Inhibition of human MAOA.

Series [14] deals with T1, Acetylcholinesterase. Briefly: Mixed type inhibition of electric eel AChE.
Series [15] has as its target T4, Cholinesterase. The series is described as follows: Mixed type inhibition of equine serum BuChE.
Series [16] can be described thus: Selectivity ratio of IC50 for electric eel AChE to IC50 for equine serum BuChE.

Each structure is given as a SMILES string.

Amyloid-beta precursor protein (Homo sapiens), sequence (P05067 whole entry): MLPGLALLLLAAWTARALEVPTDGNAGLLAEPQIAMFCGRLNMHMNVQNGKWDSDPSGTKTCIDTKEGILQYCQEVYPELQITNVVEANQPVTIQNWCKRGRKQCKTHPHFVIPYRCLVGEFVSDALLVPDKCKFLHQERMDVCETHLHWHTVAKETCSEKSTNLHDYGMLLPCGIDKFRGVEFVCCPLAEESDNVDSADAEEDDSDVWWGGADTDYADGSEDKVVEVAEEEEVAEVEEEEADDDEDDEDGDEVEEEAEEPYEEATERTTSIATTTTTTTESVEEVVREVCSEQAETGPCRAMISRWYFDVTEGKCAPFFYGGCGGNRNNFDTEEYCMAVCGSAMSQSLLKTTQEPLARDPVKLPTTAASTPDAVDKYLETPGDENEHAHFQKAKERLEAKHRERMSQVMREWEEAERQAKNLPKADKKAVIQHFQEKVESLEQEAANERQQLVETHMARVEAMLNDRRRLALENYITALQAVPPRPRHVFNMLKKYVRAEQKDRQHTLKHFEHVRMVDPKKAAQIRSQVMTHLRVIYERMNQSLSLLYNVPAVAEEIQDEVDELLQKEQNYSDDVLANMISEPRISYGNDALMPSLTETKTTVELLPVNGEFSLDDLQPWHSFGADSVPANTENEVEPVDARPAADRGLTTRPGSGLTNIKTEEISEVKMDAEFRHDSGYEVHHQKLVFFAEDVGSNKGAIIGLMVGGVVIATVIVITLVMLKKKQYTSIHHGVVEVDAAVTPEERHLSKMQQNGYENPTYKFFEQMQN

What is called inhibition is how much of the control response was suppressed. The term IC50 denotes the concentration that gives 50% inhibition. `CN(CCCCCN1C(=O)c2ccccc2S1(=O)=O)Cc1ccccc1`: in series [1], the inhibition stood at 22.2%. Also, the IC50 against Acetylcholinesterase [2] was found to be 0.036 µM; on Acetylcholinesterase [3], 0.033 µM.

For the compound `C#CCNc1nc(NCCCCC2CCN(Cc3ccccc3)CC2)c(C#N)cc1C#N`, on Acetylcholinesterase [4], the IC50 stood at 0.001 µM.

On to `C#CCNc1nc(NCCCC2CCN(Cc3ccccc3)CC2)c(C#N)cc1C#N`, for which the values for the IC50 (in [5]; against Acetylcholinesterase [6]; against Cholinesterase [7]) were 3.95 µM, 0.0011 µM and 0.6 µM, respectively.

Take `COc1ccc2c(c1)C/C(=C\C1CCN(Cc3ccccc3)CC1)C2=O`: the IC50 against Beta-secretase 1 is 0.333 µM.

For the compound `COc1cc(/C=C/C(=O)N(CCCC2CCN(Cc3ccccc3)CC2)CC(=O)Nc2c(C)cccc2Cl)ccc1O`, the IC50 came to 0.0523 µM at Cholinesterase [8] and 0.0293 µM on Acetylcholinesterase [9]. Moreover, the Activity in series [10] turned out to be 5.32 equiv.

Regarding `O=C(NCCC1CCN(Cc2ccccc2)CC1)c1ccc(Cl)cn1`, the IC50 amounted to 1.23 µM on Cholinesterase [8], 3.14 µM in [12], 0.22 µM on Acetylcholinesterase [9] and 13.4 µM in series [13]. For the same compound, the Papp in series [11] stood at 104 nm/s.

`COc1cc2c(cc1OC)C(=O)/C(=C/C1CCN(Cc3ccccc3)CC1)C2` came in with an IC50 at Beta-secretase 1 of 0.697 µM.

On to `Cn1c(=O)n(C)c2cc(S(=O)(=O)NCC3CCN(Cc4ccc(F)cc4)CC3)ccc21`, for which the IC50 at Acetylcholinesterase [14] stood at 2.05 µM; against Cholinesterase [15] it was 0.031 µM. For the same compound, the Ratio IC50 in series [16] came out at 66.1.
